Experimental data from US5464826A, “Method of treating tumors in mammals with 2',2'-difluoronucleosides” (Eli Lilly and Company, priority 1994, dated 1995).

How the values were obtained:
[1] = system: L1210V lymphocytic leukemia; experiment: L1210V Lymphocytic Leukemia Tumor System; type: in vivo, mice; details: for Indefinite Survivors: 45 day survivors; for Toxic Deaths: deaths/mice in group
Procedure: The study testing the efficacy of these compounds against L1210V leukemia was initiated by an IP inoculation of 1×10^6 cells. Treatment was begun 24 hours after inoculation. The response to therapy was determined by comparing the mean life span of the ten treated animals to that of the ten control animals; prolongation of life in the treated animals beyond that of controls is expressed as a percentage. In the Table, column 1 gives the example number of the compound tested; column 2, the experiment number; column 3, the dose level of the compound in mg/kg; column 4, the route of administration; column 5, the dosage schedule, that is, the days on which the compound was administered to the mice; column 6, the average increase in life span of the treated mice as compared to the control mice; column 7, the toxic deaths over the number of mice in each group; and column 8, the indefinite survivors, that is, the number of 45 day survivors in each group.

6C3HED lymphosarcoma = 6C3HED lymphosarcoma tumor model; type: in vivo, mice (C3H); details: IP
Text: 6C3HED--The 6C3HED lymphosarcoma was obtained in 1979 from the Division of Cancer Treatment, N.C.I., tumor bank maintained at E.G. and G. Mason Research (Worchester, Mass.). First passage tumor was stored in liquid nitrogen using standard techniques. The transplanted tumor was re-established from the tumor bank every six months or as needed. The tumor is maintained by serial passage twice weekly in C3H mice (Charles River; Wilmington, Mass.).
(§1) The tumor was removed from passage animals and minced into 1 to 3 mm square fragments using sterile techniques. Tumor pieces were checked for sterility using both Antibiotic Medium 1 and Brain Heart Infusion (Difco; Detroit, Mich.). Recipient mice were shaved and tumor pieces were implanted subcutaneously in the axillary region by trocar. Drug therapy on the appropriate schedule was initiated on the day after tumor implant. The compound was dissolved in saline for all experiments. All animals were weighed at the beginning and end of drug treatment. Food and water were provided ad libitum. On days 10 to 12, two dimensional measurements (width and length) of all tumors were taken using vernier calipers. Tumor weights were calculated from these measurements using the following formula:
(§2) Tumor Weight (mg)=Tumor Length (mm)×Tumor Width (mm)^2 /2
(§3) For all data, the tumor weight was rounded to the nearest tenth of a gram for analysis. No group is included in the analysis for therapeutic activity in which deaths attributable to drug toxicity exceeded 30 percent of the treated group.
(§4) In Table 3 which follows, column 1 gives the example number of the compound tested; column 2 provides the tumor system; column 3, the dose level; column 4, the route administered; column 5, the dosage schedule; column 6, the percent inhibition of the tumor; and column 7, the toxic deaths observed prior to completion of the study.

[2] = system: X5563 plasma cell myeloma; experiment: X5563 plasma cell myeloma tumor model; type: in vivo, mice (C3H); details: IP, Days 1,5,9
Text: X5563 Myeloma--the tumor is maintained in C3H mice.
as §1, §2, §3, §4

CA755 adenocarcinoma = CA755 adenocarcinoma tumor model; type: in vivo, mice (C57BL/6); details: IP, Days 1,5,9
Text: CA755--The adenocarcinoma 755 is an undifferentiated mammary carcinoma which was obtained in 1980 from the Division of Cancer Treatment, N.C.I., tumor bank maintained at E.G. and G. Mason Research (Worchester, Mass.). First passage tumor was stored in liquid nitrogen using standard techniques. The transplanted tumor was re-established from the tumor bank every six months or as needed. The tumor is maintained by serial passage once a week in C57BL/6 female mice (Jackson Laboratory; Bar Harbor, Me.).
as §1, §2, §3, §4

[3] = Experiment 1, 1.25 mg/kg, IP, Days 1,5,9
[4] = Experiment 1, 2.5 mg/kg, IP, Days 1,5,9
[5] = Experiment 1, 5.0 mg/kg, IP, Days 1,5,9
[6] = Experiment 1, 10.0 mg/kg, IP, Days 1,5,9
[7] = Experiment 1, 20.0 mg/kg, IP, Days 1,5,9
[8] = Experiment 2, 0.5 mg/kg, IP, Daily for 10 Days
[9] = Experiment 2, 1.0 mg/kg, IP, Daily for 10 Days
[10] = Experiment 2, 2.0 mg/kg, IP, Daily for 10 Days
[11] = Experiment 3, 25.0 mg/kg, IP, Day 1 only
[12] = Experiment 3, 50.0 mg/kg, IP, Day 1 only
[13] = Experiment 3, 100.0 mg/kg, IP, Day 1 only
[14] = Experiment 3, 200.0 mg/kg, IP, Day 1 only
[15] = Experiment 4, 0.5 mg/kg, PO, Daily for 10 days
[16] = Experiment 4, 1.0 mg/kg, PO, Daily for 10 days
[17] = Experiment 4, 2.0 mg/kg, PO, Daily for 10 days
[18] = Experiment 4, 4.0 mg/kg, PO, Daily for 10 days
[19] = Experiment 5, 0.5 mg/kg, IP, Daily for 9 days
[20] = Experiment 5, 1.0 mg/kg, IP, Daily for 9 days
[21] = Experiment 5, 2.0 mg/kg, IP, Daily for 9 days
[22] = Experiment 5, 4.0 mg/kg, IP, Daily for 9 days

Nc1ccn(C2O[C@H](CO)[C@@H](O)C2(F)F)c(=O)n1 (some centres unmarked) [Example 1, 1-(4-Amino-2-oxo-1H-pyrimidin-1-yl)-2-desoxy-2,2-difluororibose]
Percent Increase Life Span [1, 3]: 50%
Indefinite Survivors [1, 3]: 0
Toxic Deaths [1, 3]: 0/10
Percent Increase Life Span [1, 4]: 60%
Indefinite Survivors [1, 4]: 0
Toxic Deaths [1, 4]: 0/10
Percent Increase Life Span [1, 5]: 66%
Indefinite Survivors [1, 5]: 0
Toxic Deaths [1, 5]: 0/10
Percent Increase Life Span [1, 6]: 66%
Indefinite Survivors [1, 6]: 0
Toxic Deaths [1, 6]: 1/10
Percent Increase Life Span [1, 7]: 60%
Indefinite Survivors [1, 7]: 0
Toxic Deaths [1, 7]: 0/10
Percent Increase Life Span [1, 8]: 13%
Indefinite Survivors [1, 8]: 0
Toxic Deaths [1, 8]: 0/10
Percent Increase Life Span [1, 9]: 0%
Indefinite Survivors [1, 9]: 0
Toxic Deaths [1, 9]: 0/10
Percent Increase Life Span [1, 10]: 0%
Indefinite Survivors [1, 10]: 0
Toxic Deaths [1, 10]: 0/10
Percent Increase Life Span [1, 11]: 23%
Indefinite Survivors [1, 11]: 0
Toxic Deaths [1, 11]: 0/10
Percent Increase Life Span [1, 12]: 30%
Indefinite Survivors [1, 12]: 0
Toxic Deaths [1, 12]: 0/10
Percent Increase Life Span [1, 13]: 26%
Indefinite Survivors [1, 13]: 0
Toxic Deaths [1, 13]: 0/10
Percent Increase Life Span [1, 14]: 34%
Indefinite Survivors [1, 14]: 0
Toxic Deaths [1, 14]: 0/10
Percent Increase Life Span [1, 15]: 8%
Indefinite Survivors [1, 15]: 0
Toxic Deaths [1, 15]: 0/10
Percent Increase Life Span [1, 16]: 15%
Indefinite Survivors [1, 16]: 0
Toxic Deaths [1, 16]: 0/10
Percent Increase Life Span [1, 17]: 18%
Indefinite Survivors [1, 17]: 0
Toxic Deaths [1, 17]: 1/10
Percent Increase Life Span [1, 18]: 2%
Indefinite Survivors [1, 18]: 0
Toxic Deaths [1, 18]: 4/10
Percent Increase Life Span [1, 19]: 74%
Indefinite Survivors [1, 19]: 0
Toxic Deaths [1, 19]: 0/10
Percent Increase Life Span [1, 20]: 104%
Indefinite Survivors [1, 20]: 0
Toxic Deaths [1, 20]: 0/10
Percent Increase Life Span [1, 21]: 136%
Indefinite Survivors [1, 21]: 0
Toxic Deaths [1, 21]: 0/10
Percent Increase Life Span [1, 22]: 44%
Indefinite Survivors [1, 22]: 0
Toxic Deaths [1, 22]: 0/10
Percent Inhibition of Tumor (6C3HED lymphosarcoma; 0.05 mg/kg, Daily for 8 Days): 0%
Toxic Deaths (6C3HED lymphosarcoma; 0.05 mg/kg, Daily for 8 Days): 0/10
Percent Inhibition of Tumor (6C3HED lymphosarcoma; 0.1 mg/kg, Daily for 8 Days): 0%
Toxic Deaths (6C3HED lymphosarcoma; 0.1 mg/kg, Daily for 8 Days): 0/10
Percent Inhibition of Tumor (6C3HED lymphosarcoma; 0.2 mg/kg, Daily for 8 Days): 0%
Toxic Deaths (6C3HED lymphosarcoma; 0.2 mg/kg, Daily for 8 Days): 0/10
Percent Inhibition of Tumor (6C3HED lymphosarcoma; 0.4 mg/kg, Daily for 8 Days): 8%
Toxic Deaths (6C3HED lymphosarcoma; 0.4 mg/kg, Daily for 8 Days): 0/10
Percent Inhibition of Tumor (6C3HED lymphosarcoma; 1.25 mg/kg, Days 1,5,9): 0%
Toxic Deaths (6C3HED lymphosarcoma; 1.25 mg/kg, Days 1,5,9): 0/7
Percent Inhibition of Tumor (6C3HED lymphosarcoma; 2.5 mg/kg, Days 1,5,9): 1%
Toxic Deaths (6C3HED lymphosarcoma; 2.5 mg/kg, Days 1,5,9): 0/7
Percent Inhibition of Tumor (6C3HED lymphosarcoma; 5.0 mg/kg, Days 1,5,9): 49%
Toxic Deaths (6C3HED lymphosarcoma; 5.0 mg/kg, Days 1,5,9): 0/7
Percent Inhibition of Tumor (6C3HED lymphosarcoma; 10.0 mg/kg, Days 1,5,9): 88%
Toxic Deaths (6C3HED lymphosarcoma; 10.0 mg/kg, Days 1,5,9): 0/7
Percent Inhibition of Tumor (6C3HED lymphosarcoma; 20.0 mg/kg, Days 1,5,9): 95%
Toxic Deaths (6C3HED lymphosarcoma; 20.0 mg/kg, Days 1,5,9): 0/7
Percent Inhibition of Tumor ([2]; 1.25 mg/kg): 11%
Toxic Deaths ([2]; 1.25 mg/kg): 1/10
Percent Inhibition of Tumor ([2]; 2.5 mg/kg): 52%
Toxic Deaths ([2]; 2.5 mg/kg): 1/10
Percent Inhibition of Tumor ([2]; 5.0 mg/kg): 89%
Toxic Deaths ([2]; 5.0 mg/kg): 0/10
Percent Inhibition of Tumor ([2]; 10.0 mg/kg): 98%
Toxic Deaths ([2]; 10.0 mg/kg): 0/10
Percent Inhibition of Tumor ([2]; 20.0 mg/kg): 100%
Toxic Deaths ([2]; 20.0 mg/kg): 0/10
Percent Inhibition of Tumor (CA755 adenocarcinoma; 1.25 mg/kg): 0%
Toxic Deaths (CA755 adenocarcinoma; 1.25 mg/kg): 0/10
Percent Inhibition of Tumor (CA755 adenocarcinoma; 2.5 mg/kg): 44%
Toxic Deaths (CA755 adenocarcinoma; 2.5 mg/kg): 0/10
Percent Inhibition of Tumor (CA755 adenocarcinoma; 5.0 mg/kg): 85%
Toxic Deaths (CA755 adenocarcinoma; 5.0 mg/kg): 0/10
Percent Inhibition of Tumor (CA755 adenocarcinoma; 10.0 mg/kg): 86%
Toxic Deaths (CA755 adenocarcinoma; 10.0 mg/kg): 0/10
Percent Inhibition of Tumor (CA755 adenocarcinoma; 20.0 mg/kg): 94%
Toxic Deaths (CA755 adenocarcinoma; 20.0 mg/kg): 0/10
